The source of these data is US20030032587A1, “Urocortin peptides” (The Salk Institute for Biological Studies, priority 1995, published 2003).

Experiment [1] concerns mammalian systemic blood pressure. Description: mammalian vasodilatory-hypotensive activity. The following applies: result in words. The experiment is classed as in vivo.
The subject of experiment [2] is rat anterior pituitary cells. Description: ACTH secretion by anterior pituitary cell cultures in the presence of a challenge dose of ovine CRF (antagonist test). The following applies: result in words; test not specified. The experiment is classed as cell-based. The text has this: (§1) A straightforward assay using rat anterior pituitary cells in monolayer culture can be carried out to determine whether a candidate peptide thereof will function as a CRF agonist and stimulate ACTH secretion by activating CRF receptors on such cells. The procedure which is used is that generally set forth in Endocrinology, 91, supra. A very similar assay is used to test for antagonistic properties, using a challenge dose of oCRF or the like.
An in vivo test measuring elevation of mean arterial blood pressure as a result of iv injection is also simply and straightforwardly performed.

Experiment [3] relates to primary murine anterior pituitary cells. It is filed as cell-based. Particulars: for stimulates the secretion of ACTH and β-END-LI (β-endorphin): result in words; for ACTH secretion in vitro, times as effective as r/hCRF (confidence limits): anterior pituitary cell cultures, relative to r/hCRF.
Description: as §1
To test the ability of purified Ucn or another candidate Ucn-like peptide to function as a CRF agonist and to promote ACTH production and/or secretion, cultures of dispersed primary murine anterior pituitary cells (0.15×10^6 cells/well are used), as generally described in Vale et al. Meth. Enzym., 103, 565-577 (1983), and in Endocrinology, 91, 562 (1972). These cultures are maintained in 0.5 ml/well of β-PJ (a reagent available from Kansas City Biochemicals) containing 2% fetal bovine serum. On the morning of culture day 5, the cells are washed 3 times with β-PJ containing 0.1% bovine serum albumin and then incubated for 1 hour at 37° C. in the same medium. The medium is then replaced with Ucn, or an analog thereof, diluted in β-PJ containing 0.1% bovine serum albumin. Incubations are terminated after 3 hours, at which time the medium is removed and stored at −20° C. until ACTH radioimmunoassays are performed using a suitable kit, such as that commercially available from Diagnostic Products Corporation of Los Angeles, Calif. Secreted ACTH is measured using Allfit computer program with results expressed as the average±s.e.m. of 3 replicate bioassays.

The target of experiment [4] is CRF receptors on anterior pituitary cells in culture. Description: cell-based or functional assay.

Bridges are numbered along the chain shown (N, C = ends). Where no end group is shown, it is not given here. [ ]: non-standard residue; d: D form.

With “H-DNPSLSIDLT[dF]HLLRTLLELARTQSQRERAEQNRIIFDSV-NH2 [[D-Phe^11]-hUcn]”, the “vasodilatory-hypotensive activity, including lowering systemic blood pressure and stimulating the secretion of ACTH” value in experiment [1] was “significant mammalian vasodilatory-hypotensive activity”.
With “Ucn (10-40) (TFHLLRTLLELARTQSQRERAEQNRIIFDSV; ends and bridges not checked; UniProt P55089 92-122, looked up, fragment)”, the “bioactivity as Ucn antagonists” value in experiment [2] is “bioactivity as Ucn antagonists”.
Regarding “Ac-Pro-Ser-Leu-Ser-Ile-Asp-Leu-Thr-Phe-His-Leu-Leu-Arg-Thr-Leu-Leu-Glu-Leu-Ala-Arg-Thr-Gln-Ser-Gln-Arg-Glu-Arg-Ala-Glu-Gln-Asn-Arg-Ile-Ile-Phe-Asp-Ser-Val-NH2 (Ac-PSLSIDLTFHLLRTLLELARTQSQRERAEQNRIIFDSV-NH2) [[Ac-Pro^3]-hUcn(3-40)]”, the “stimulates the secretion of ACTH and β-END-LI (β-endorphin)” value (“stimulates the secretion” for short) in experiment [3] was “stimulates the secretion of ACTH and β-END-LI”. In experiment [1], the “vasodilatory-hypotensive activity, including lowering systemic blood pressure and stimulating the secretion of ACTH” value was “causes vasodilatory-hypotensive activity”.
Turning to “Ac-Pro-Ser-Leu-Ser-Ile-Asp-Leu-Thr-D-Phe-His-Leu-Leu-Arg-Thr-Leu-Leu-Glu-Leu-Ala-Arg-Thr-Gln-Ser-Gln-Arg-Glu-Glu-Ala-D-Glu-Lys-Asn-Arg-Ile-Ile-Phe-Asp-Ser-Val-NH2 (Ac-PSLSIDLT[dF]HLLRTLLELARTQSQREEA[dE]KNRIIFDSV-NH2; lactam 27-30 (inferred))”, in experiment [3], the “ACTH secretion in vitro, times as effective as r/hCRF (confidence limits)” value (shortened to “ACTH secretion in vitro … (confidence limits)”) is 6.14 (2.83-14.05); the “stimulates the secretion” value is “stimulates the secretion of ACTH and β-END-LI”. Besides, the “vasodilatory-hypotensive activity, including lowering systemic blood pressure and stimulating the secretion of ACTH” value in experiment [1] is “causes vasodilatory-hypotensive activity”.
On to [Ac-Thr^10]Ucn(10-40), for which the “bioactivity as Ucn antagonists” value in experiment [2] is “bioactivity as Ucn antagonists”.
With “H-[dY]DNPSLSIDLTFHLLRTLLELARTQSQRERAEQNRIIFDSV-NH2 [[D-Tyr^∘]hUcn(1-40)]”, in experiment [3], the “ACTH secretion in vitro … (confidence limits)” value is 1.23 (0.60-2.54). Further, in experiment [1], the “vasodilatory-hypotensive activity, including lowering systemic blood pressure and stimulating the secretion of ACTH” value is listed as “significant mammalian vasodilatory-hypotensive activity”.
The matching figures for “H-Tyr-Asp-Asp-Pro-Pro-Leu-Ser-Ile-Asp-Leu-Thr-Phe-His-Leu-Leu-Arg-Thr-Leu-Leu-Glu-Leu-Ala-Arg-Thr-Gln-Ser-Gln-Arg-Glu-Arg-Ala-Glu-Gln-Asn-Arg-Ile-Ile-Phe-Asp-Ser-val-NH2 [[Tyr^∘]rUcn(1-40)]”: 2.20 (1.28-3.88) and “significant mammalian vasodilatory-hypotensive activity”.
Turning to “Ac-Pro-D-Pro-Leu-Ser-Ile-Asp-Leu-Thr-D-Phe-His-Leu-Leu-Arg-Thr-Leu-Leu-Glu-Leu-Ala-Arg-Thr-Gln-Ser-Gln-Arg-Glu-Glu-Ala-Glu-Lys-Asn-Arg-Ile-Ile-Phe-Asp-Ser-Val-NH2 (Ac-P[dP]LSIDLT[dF]HLLRTLLELARTQSQREEAEKNRIIFDSV-NH2; lactam 27-30 (inferred))”, in experiment [3], the “ACTH secretion in vitro … (confidence limits)” value is on record as 9.90 (4.48-22.85); the “stimulates the secretion” value is “stimulates the secretion of ACTH and β-END-LI”. For the same molecule, the “vasodilatory-hypotensive activity, including lowering systemic blood pressure and stimulating the secretion of ACTH” value in experiment [1] was “causes vasodilatory-hypotensive activity”.
For “H-Asn-Pro-Ser-Leu-Ser-Ile-Asp-Leu-Thr-Phe-His-Leu-Leu-Arg-Thr-Leu-Leu-Glu-Leu-Ala-Arg-Thr-Gln-Ser-Gln-Arg-Glu-Arg-Ala-Glu-Gln-Asn-Arg-Ile-Ile-Phe-Asp-Ser-Val-NH2 (H-NPSLSIDLTFHLLRTLLELARTQSQRERAEQNRIIFDSV-NH2) [hUcn(2-40)]”, the “vasodilatory-hypotensive activity, including lowering systemic blood pressure and stimulating the secretion of ACTH” value in experiment [1] is reported as “significant mammalian vasodilatory-hypotensive activity”.
As for “Ac-Pro-D-Ser-Leu-Ser-Ile-Asp-Leu-Thr-D-Phe-His-Leu-Leu-Arg-Thr-Leu-Leu-Glu-Leu-Ala-Arg-Thr-Gln-Ser-Gln-Arg-Glu-Glu-Ala-Glu-Lys-Asn-Arg-Ile-Ile-Phe-Asp-Ser-Val-NH2 (Ac-P[dS]LSIDLT[dF]HLLRTLLELARTQSQREEAEKNRIIFDSV-NH2; lactam 27-30 (inferred))”, in experiment [3], the “ACTH secretion in vitro … (confidence limits)” value is listed as 5.69 (2.43-14.49); the “stimulates the secretion” value was “stimulates the secretion of ACTH and β-END-LI”. Also, the “vasodilatory-hypotensive activity, including lowering systemic blood pressure and stimulating the secretion of ACTH” value in experiment [1] was “causes vasodilatory-hypotensive activity”.
As to “H-Asp-Asn-Pro-Ser-Leu-Ser-Ile-Asp-Leu-Thr-Phe-His-Leu-Leu-Arg-Thr-Leu-Leu-Glu-Leu-Ala-Arg-Thr-Gln-Ser-Gln-Arg-Glu-Arg-Ala-Glu-Gln-Asn-Arg-Ile-Ile-Phe-Asp-Ser-Val-NH2 (H-DNPSLSIDLTFHLLRTLLELARTQSQRERAEQNRIIFDSV-NH2) [Human Ucn(1-40)]”, the “ACTH secretion in vitro … (confidence limits)” value in experiment [3] was 3.10 (1.41-6.65). In experiment [1], the “vasodilatory-hypotensive activity, including lowering systemic blood pressure and stimulating the secretion of ACTH” value is “significant mammalian vasodilatory-hypotensive activity”.

B1: (cyclo 29-32) [Pro10,D-Phe11, Glu29,D-Glu31, Lys32]-Ucn(10-40) (peptide)
peptide: P[dF]HLLRTLLELARTQSQREEA[dE]KNRIIFDSV-NH2
modifications: lactam 20-23; N-terminus assumed
SMILES: CC[C@H](C)[C@H](NC(=O)[C@H](CCCNC(=N)N)NC(=O)[C@H](CC(N)=O)NC(=O)[C@@H]1CCCCNC(=O)CC[C@H](NC(=O)[C@H](CCC(=O)O)NC(=O)[C@H](CCCNC(=N)N)NC(=O)[C@H](CCC(N)=O)NC(=O)[C@H](CO)NC(=O)[C@H](CCC(N)=O)NC(=O)[C@@H](NC(=O)[C@H](CCCNC(=N)N)NC(=O)[C@H](C)NC(=O)[C@H](CC(C)C)NC(=O)[C@H](CCC(=O)O)NC(=O)[C@H](CC(C)C)NC(=O)[C@H](CC(C)C)NC(=O)[C@@H](NC(=O)[C@H](CCCNC(=N)N)NC(=O)[C@H](CC(C)C)NC(=O)[C@H](CC(C)C)NC(=O)[C@H](Cc2c[nH]cn2)NC(=O)[C@@H](Cc2ccccc2)NC(=O)[C@@H]2CCCN2)[C@@H](C)O)[C@@H](C)O)C(=O)N[C@@H](C)C(=O)N[C@H](CCC(=O)O)C(=O)N1)C(=O)N[C@H](C(=O)N[C@@H](Cc1ccccc1)C(=O)N[C@@H](CC(=O)O)C(=O)N[C@@H](CO)C(=O)N[C@H](C(N)=O)C(C)C)[C@@H](C)CC
Turning to B1, the antagonism of ACTH secretion under a challenge dose of ovine CRF, potency relative to the Standard Antagonist (times Standard Antagonist) in experiment [4] came to 2.74.

B2: (cyclo 29-32) [D-Pro10,D-Phe11, Glu29, D-Glu31, Lys32]-Ucn(10-40) (peptide)
peptide: [dP][dF]HLLRTLLELARTQSQREEA[dE]KNRIIFDSV-NH2
modifications: lactam 20-23; N-terminus assumed
SMILES: CC[C@H](C)[C@H](NC(=O)[C@H](CCCNC(=N)N)NC(=O)[C@H](CC(N)=O)NC(=O)[C@@H]1CCCCNC(=O)CC[C@H](NC(=O)[C@H](CCC(=O)O)NC(=O)[C@H](CCCNC(=N)N)NC(=O)[C@H](CCC(N)=O)NC(=O)[C@H](CO)NC(=O)[C@H](CCC(N)=O)NC(=O)[C@@H](NC(=O)[C@H](CCCNC(=N)N)NC(=O)[C@H](C)NC(=O)[C@H](CC(C)C)NC(=O)[C@H](CCC(=O)O)NC(=O)[C@H](CC(C)C)NC(=O)[C@H](CC(C)C)NC(=O)[C@@H](NC(=O)[C@H](CCCNC(=N)N)NC(=O)[C@H](CC(C)C)NC(=O)[C@H](CC(C)C)NC(=O)[C@H](Cc2c[nH]cn2)NC(=O)[C@@H](Cc2ccccc2)NC(=O)[C@H]2CCCN2)[C@@H](C)O)[C@@H](C)O)C(=O)N[C@@H](C)C(=O)N[C@H](CCC(=O)O)C(=O)N1)C(=O)N[C@H](C(=O)N[C@@H](Cc1ccccc1)C(=O)N[C@@H](CC(=O)O)C(=O)N[C@@H](CO)C(=O)N[C@H](C(N)=O)C(C)C)[C@@H](C)CC
In experiment [4], B2 displayed an antagonism of ACTH secretion under a challenge dose of ovine CRF, potency relative to the Standard Antagonist (times Standard Antagonist) of 4.99.
